From patent US20040202728A1, “Method for the destruction of oocysts” (priority 2001, published 2004)

System: Cryptosporidium oocysts
Assay: Microelectrophoresis of oocysts in the presence of water treatment coagulants
Procedure: The zeta potentials of Cryptosporidium oocysts in the presence 5 mg/L ferric chloride were studied over a pH range 3-10.
As with the ferric flocs, it was possible to differentiate between the alum flocs and the oocyst in solution because of their different size, shape and scattering ability. The zeta potentials of Cryptosporidium oocysts in the presence of 6.8 mg/L alum were studied over a pH range 4-8.

SMILES | adsorption of coagulant species to oocysts (from zeta potentials) (6.8 mg/L, pH range 4-8) | adsorption of coagulant species to oocysts (from zeta potentials) (5 mg/L, pH range 3-10)
O=S(=O)([O-])[O-].O=S(=O)([O-])[O-].O=S(=O)([O-])[O-].[Al+3].[Al+3] [alum] | chemisorbed to the oocyst surface | –
[Cl][Fe]([Cl])[Cl] [ferric chloride] | – | no adsorption
